Data as given in paper PMC5844890 (Scientific Reports, 2018).
Where two headings read alike, the source gives them in different places.

Columns and labels:
[1] = tested on: HeLa cells; assay: Anti-proliferative activity, HeLa cervical carcinoma cells (Coulter counting); format: cell-based; conditions: Homo sapiens, 72 h, mean ± SD of three independent experiments, 3 days of incubation, read-out: Tumor cells IC50 HeLa
Excerpt: (§1) The anti-proliferative activity of the synthesized benzofurane derivatives was studied in three human cancer cell lines [breast carcinoma (MDA-MB-231), lymphoblastic leukemia (CEM) and cervical carcinoma (HeLa) cells] and one endothelial cell line [human microvascular endothelial cells (HMEC-1)].
(§2) The human microvascular endothelial cell line HMEC-1 was obtained at passage 12 from the Centers for Disease Control and Prevention (Atlanta, GA, USA) and used from passage 17 till 27. Human breast carcinoma (MDA-MB-231), human cervical carcinoma (HeLa) and human T-lymphoid (CEM) cells were obtained from ATCC (Middlesex, UK). Cell lines were maintained in culture for up to 3 months and grown in DMEM, supplemented with 10% FBS, 0.01 M Hepes and 1 mM sodium pyruvate. All cells were cultured in a humidified 5% CO2 incubator at 37 °C.
(§3) HMEC-1 cells were seeded in 48-well plates at 20,000 cells/well. After 24 h, 5-fold dilutions of the compounds were added. The cells were allowed to proliferate 4 days in the presence of the compounds, trypsinized, and counted by means of a Coulter counter (Analis, Belgium). HeLa and MDA-MB-231 cells were seeded in 48-well plates at 10,000 cells/well. After 24 h, different concentrations of the compounds were added. After 3 days of incubation, the cells were trypsinized and counted in a Coulter counter. Suspension cells (human lymphoid Cem cells) were seeded in 96-well plates at 60,000 cells/well in the presence of different concentrations of the compounds, allowed to proliferate for 96 h, and counted in a Coulter counter. The 50% inhibitory concentration (IC50) was defined as the compound concentration required to reduce cell proliferation by 50%.

[2] = tested on: HMEC-1 cells; assay: Anti-proliferative activity, HMEC-1 microvascular endothelial cells (Coulter counting); format: cell-based; conditions: Homo sapiens, HMEC-1, 96 h; mean ± SD of three independent experiments; 4 days; read-out: Endothelial cells IC50 HMEC-1
Excerpt: as §1, §2, §3

[3] = tested on: MDA-MB-231 cells; assay: Caspase-3 activity / apoptosis in live cells (fluorescence microscopy); format: cell-based, human; conditions: 1 µM, after 24 h
Description: (§4) Figure 6 Mechanism of action of the benzofurane derivatives. (A) Inhibition of cell cycle progression. MDA-MB-231 cells were treated with DMSO (control) or compounds 8, 27 or 28 for 24 h. Next, the cells were harvested, stained with propidium iodide (PI), and cell cycle distribution was evaluated by flow cytometry. Percentages of cells in the different phases of the cell cycle are indicated. (B) Caspase-3 activity. MDA-MB-231 cells were seeded in 48-well plates at 40,000 cells/cm². After 24 h, different concentrations of compounds 8, 27 or 28 and 2 µM of the caspase-3 substrate DEVD-NucView488 were added. After 16 h, the cells were incubated with 2 µg/ml Hoechst 33342 to stain the nucleus, and imaged. (C) Disruption of the vascular network. HMEC-1 cells were cultured on matrigel for 3 h to allow the formation of tube-like structures. Next, different concentrations of compounds were added. Upper panel: After 90 min, pictures were taken and the tubular network was scored (3: intact network, 0: network completely destroyed). Bars show average ± SEM (n = 4). Lower panel: Microscopic pictures of the tubular network 3 h after addition of compound.
To confirm the capacity of compounds 27 and 28 to induce apoptosis, MDA-MB-231 cells were treated with the compounds for 24 h in the presence of NucView® 530 Caspase-3. This substrate is cleaved by active caspase-3 activity (the main executioner enzyme during apoptosis) to generate a fluorescent derivative that is analyzed using fluorescence microscopy.
MDA-MB-231 cells were seeded at 40,000 cells/cm². After 24 h, cells were incubated in Fluorobrite DMEM (Gibco), containing the compound and 2 µM of the caspase-3 substrate DEVD-NucView488 (Biotium, Hayward, CA). After 16 h, the DNA was stained with Hoechst33342 and the cells were imaged by fluorescence microscopy.

[4] = tested on: HMEC-1 cells; assay: Disruption of a preformed vascular network on matrigel (tube formation); format: cell-based, human
Description: as §4
Another feature of colchicine-site binding agents is their ability to destroy a 3-dimensional network of endothelial cells. To determine the vascular disrupting capacity of compounds 27 and 28, HMEC-1 cells were seeded on top of matrigel. This tumor derived extracellular matrix induces within 3 h the rearrangement of endothelial cells into a vascular network. Compounds 27 and 28 caused a disruption of the tubular network in a concentration-dependent manner (Fig. 6C).
Wells of a 96-well plate were coated with 70 µl matrigel (10 mg/ml, BD Biosciences, Heidelberg, Germany) at 4 °C. After gelatinization at 37 °C during 30 min, HMEC-1 cells were seeded at 60,000 cells/well on top of the matrigel in 200 µl DMEM containing 10% FCS. After 3 h of incubation at 37 °C, when the endothelial cells had reorganized to form tube-like structures, the compounds were added. Ninety minutes later, the cultures were photographed at 100 × magnification and analyzed using digitalized analysis.

[5] = tested on: MDA-MB-231, CEM, HeLa and HMEC-1 cells; assay: Anti-proliferative activity, summary over tumor and endothelial cell lines; format: cell-based; conditions: Homo sapiens
Description: as §1, §3

[6] = Endothelial cell, range stated in the conclusions, read-out: IC50 (antiproliferative activity against tumor and endothelial cells)
[7] = range over tumor and endothelial cell lines, read-out: IC50 values ranging (antiproliferative, all cell lines of Table 1)

Row | Compound | IC50 [1] | IC50 [2] | apoptotic rate (apoptotic cells, caspase-3 substrate) [3] | disruption of the vascular (tubular) network ([4]; 0.01 μM) | disruption of the vascular (tubular) network ([4]; 0.1 μM) | IC50 [5, 6] | IC50 [5, 7]
1 | COCc1cc2cccc(NC(C)=C3C(=O)CC(c4ccccc4)CC3=O)c2o1 (centres unmarked) [Compound 27, 2-(1-((2-(Methoxymethyl)benzofuran-7-yl)amino)ethylidene)-5-phenylcyclohexane-1,3-dione] | 30 ± 2 nM | 16 ± 2 nM | ~ 30% | antivascular effect was still evident | nearly completely abrogated the vascular network | 8 to 31 nM | 9 to 51 nM
2 | CC(Nc1cccc2cc(COCCCO)oc12)=C1C(=O)CC(c2ccccc2)CC1=O (centres unmarked) [Compound 28, 2-(1-((2-((3-Hydroxypropoxy)methyl)benzofuran-7-yl)amino)ethylidene)-5-phenylcyclohexane-1,3-dione] | 34 ± 3 nM | 38 ± 3 nM | ~40% | antivascular effect was still evident | nearly completely abrogated the vascular network | 8 to 31 nM | 9 to 51 nM
